We go through seven compounds from paper PMC8386747, “Structure–activity relationship, in vitro and in vivo evaluation of novel dienyl sulphonyl fluorides as selective BuChE inhibitors for the treatment of Alzheimer's disease” (Journal of Enzyme Inhibition and Medicinal Chemistry, 2021).

Entries after “also recorded” stand apart in the source; their conditions may differ.

For data set [1] the following is noted: PAMPA-BBB, reported data from the reference; cited from earlier work.
A further data set in a line: in vitro. The note with it: PAMPA.
For data set [2] the following is noted: PAMPA-BBB class.
Procedure: (§2) The 96-well UV plate (COSTAR) was manufactured by Corning Corporation, USA, and the commercially available drugs and test compounds were initially dissolved in DMSO at a concentration of 20 mg/mL. The solution was then diluted 200-fold with PBS (pH 7.4 ± 0.1)/EtOH (70/30, v/v) solution to a final concentration of 100 µg/mL.
(§3) The test compound was dissolved in DMSO at 5 mg/mL and diluted 200-fold with universal buffer (final concentration 25 µg/mL) to prepare the secondary stock solution; 200 µL of the secondary stock solution was added to the donor well; the acceptor plate was coated with 4 µL of 20 mg/mL dodecyl porcine polar brain, and then, 200 µL of pH 7.4 universal buffer was added to the acceptor well; the acceptor plate was carefully placed on the donor plate to form a “sandwich” and maintained for 18 h; the drug concentrations in the acceptor, donor and reference wells were determined using a UV microplate reader; the experiment was repeated three times, and the concentrations of the test compound in the donor and acceptor wells were measured using a UV plate spectral reader (PerkinElmer VICT or Nivo, Finland). In at least three independent experiments, each sample was analysed at three wavelengths in a four well.
The subject of another data set is BACE-1. The arrangement: method as in PMID 28749667, PMID 26696252. The note with it: cited from earlier work.
For the next data set, the system named is GSK-3β. The arrangement: method as in PMID 28749667, PMID 26696252. The note with it: read-out: GSK-3μ IC50; cited from earlier work.
In the next data set the test system is BuChE. The arrangement: method as in PMID 31136894. The note with it: cited from earlier work.
For the next data set, the target named is T1, AChE from electric eel (Electrophorus electricus, UniProt O42275).
T1 construct: assays were performed on AChE from electric eel (C3389-500UN; Sigma); purchased Sigma C3389-500UN
Nature of the data set: EeAChE inhibition assay (Ellman's method). Format: biochemical.

A further data set addresses T2, BuChE from equine serum (Equus caballus, UniProt P81908).
T2 construct: BuChE from equine serum (C4290-1KU; Sigma); purchased Sigma C4290-1KU; host or cells: equine serum
Nature of the data set: eqBuChE inhibition assay (Ellman's method). Format: biochemical. The note with it: BuChE from horse serum.

Data set [3] deals with T3, recombinant human AChE (hAChE) (Homo sapiens, UniProt P22303).
T3 construct: purchased Sigma C1682
Nature of the data set: hAChE inhibition assay (Ellman's assay). Format: biochemical.
Procedure: The solution was diluted to 5 concentrations of 200, 100, 10, 1 and 0.1 µM in ethanol. Measurements were performed using 96-well plates. Buffer (40 µL), sample at a series of concentrations (10 µL), AChE (10 µL), and dibutyl succinate (20 µL) were successively added. The mixture was then incubated for 5 min at 37 °C. Then, 20 µL of ACh or BuCh were added and the reaction started. […] For the blank value, 10 µL of water was used instead of the inhibitor solution. The activity of the inhibitor was expressed as a logarithmic plot of the percentage of enzyme activity (with 100% as the reference) versus the concentration of the compound. IC50 values were determined graphically from inhibition curves (log inhibitor concentration versus percent inhibition).

Data set [4] deals with Aβ1-42-induced cognitive dysfunction. Nature of the data set: Morris water maze in Aβ1-42-induced cognitive impairment model. Format: in vivo, mouse. The note with it: mice; for effect on Aβ1-42-induced cognitive dysfunction (MWM): Aβ1-42 10 µg icv. How it is done: All experiments were performed according to the National Institutes of Health Guide for the Care and Use of Laboratory Animals. The Measures for the Care and Treatment of Laboratory Animals were approved by the Animal Care and Use Committee of Anhui Medical University. Male ICR mice were used in the animal centre of Anhui Medical University (Hefei). Male mice (18‒24 g) aged 6‒8 weeks, 10 mice per cage, room temperature 22 ± 2 °C, light/dark (12:12 h) cycle. These animals had access to food and water prior to testing. The ambient temperature and relative humidity (50%) of the room remained consistent throughout all tests. Behavioural experiments: MWM was used for cognitive function, and mice were randomly selected for behavioural experiments. Each experimental group consisted of 8‒10 mice/dose. The experimental time was from 08:00 to 14:00, and the mice were sacrificed by cervical dislocation immediately after the end of the experiment. […]. Aβ1-42 aggregation was induced by dissolving the Aβ1-42 peptide in DMSO as a stock solution of 5 mM and incubating it in saline at a final concentration of 2 mg/mL for 24 h at 37 °C.
The behavioural study was a water maze experimental behavioural study on days 10 − 15, including a 5-day learning and memory training, and a test assessment on day 6. MWM consists of a water-filled pool (grey, circular, 1.20 m in diameter, 0.60 m in height) and a platform with adjustable height and movable position. The pool was divided into four equal quadrants (compass position: NE, NW, SE, SW) using a computerised video tracking system (SMART, version 3.0; Panlab, Spain). The pool was filled with water, generally about 48 cm below the edge, to prevent animals from jumping out, and the water temperature was maintained at 22 ± 1 °C. […] The time to reach the hidden platform (i.e. escape latency), the distance to reach the hidden platform, the distance in the target (NW) area, and the average speed were recorded. […]

For data set [5], the system named is human normal hepatocyte L02. Nature of the data set: Cytotoxicity MTT assay on L02 cells. Format: cell-based. The note with it: 24 h. The protocol: (§1) The cytotoxic effect was detected by MTT colorimetric assay. Human hepatoblastoma cells HepG2 and human normal hepatocyte L02 were maintained at 37 °C in a 5% humidified incubator containing 10% foetal bovine serum, 100 U/mL penicillin and […] streptomycin. HepG2 cells and L02 cells were seeded in 96-well plates at 1 × 10^4 cells per well. After cell culture for 24 h, different compounds were diluted in DMEM for 24 h. […] of 5 mg/mL MTT reagent was added for incubation for 4 h. After 4 h, the cell culture medium was removed and […] of DMSO was added to dissolve formazan. The optical density was measured at 492 nm (OD492). Cell viability was calculated from three independent experiments. The density of formazan formed in blank group was set as 100% of viability. Cell viability (%) ¼ compound (OD492/blank (OD492) ×100%

For data set [6], the system named is human hepatoblastoma cells HepG2. Kind of data set: Cytotoxicity MTT assay on HepG2 cells. Format: cell-based. The note with it: 24 h. How it is done: as §1
Data set [7] deals with T4, BuChE from human serum (hBuChE) (Homo sapiens, UniProt P06276).
T4 construct: BuChE from human serum (hBuChE); purchased Sigma B4186; host or cells: human serum
Kind of data set: hBuChE inhibition assay (Ellman's assay). The note with it: mean ± SEM. Format: biochemical.
Procedure: DTNB solution (5 µM) was prepared with 0.1 M pH 8 PBS. The test compound was dissolved at a concentration of 2 × 1 0^−1 M in DMSO and stored at temperatures ranging from −20 to 4 °C as a stock solution. The solution was diluted to 5 concentrations of 200, 100, 10, 1 and 0.1 µM in ethanol. Measurements were performed using 96-well plates. Buffer (40 µL), sample at a series of concentrations (10 µL), AChE (10 µL), and dibutyl succinate (20 µL) were successively added. The mixture was then incubated for 5 min at 37 °C. Then, 20 µL of ACh or BuCh were added and the reaction started. […] For the blank value, 10 µL of water was used instead of the inhibitor solution. The activity of the inhibitor was expressed as a logarithmic plot of the percentage of enzyme activity (with 100% as the reference) versus the concentration of the compound. IC50 values were determined graphically from inhibition curves (log inhibitor concentration versus percent inhibition).

The next data set relates to PC12 cells. Kind of data set: Neuroprotection assay against H2O2 damage. The note with it: PC12, 100 µM H2O2 (model 47.3%), not given. Format: cell-based.
A further data set deals with Aβ1-42. Format: in vivo, mouse. The note with it: mice, Aβ1-42 icv; 10 mg/kg po; vs model group.
For a further data set, the system named is ICR mice. Kind of data set: In vivo acute toxicity evaluation. The arrangement: species or system mouse. The protocol: […]. Compound A10 was suspended in a mixture of DMSO, PEG 400 and physiological saline (10/50/40, v/v/v). After fasting for 8‒12 h, the mice were intragastrically administered with the preparation or test compound A10 1.0 g/kg on the first day. The behaviour, appearance and body weight changes of the mice were observed and recorded for 2 weeks. The body weights of the mice in the control group and experimental group were compared and summarised with GraphPadPrism8.0 software.

The next data set addresses T5, eqBuChE (Equus caballus, UniProt P81908).
T5 construct: BuChE from equine serum (C4290-1KU; Sigma); purchased Sigma C4290-1KU; host or cells: equine serum
Kind of data set: Kinetic study of eqBuChE inhibition. Format: biochemical, horse. How it is done: Kinetic studies were performed with the same test conditions, using six concentrations of substrate (0.1‒1 mM) and four concentrations of inhibitor (0‒0.08 mM). The apparent inhibition constants and kinetic parameters were calculated in the “Enzyme Kinetics” module of Prism8. The effect of compound A10 concentration on the catalytic activity of BuChE at 37 °C was investigated. Assay conditions were same as described in the assay protocol except that the final concentration of enzyme was varied (0‒0.72 U/mL). Concentrations of compound A10 were 0, 0.02, 0.04, 0.08 µM respectively, for the determination of reversible as well as irreversible binding of inhibitors at enzyme.

In a further data set the test system is male ICR mice. Kind of data set: In vivo hepatotoxicity evaluation.
[8] abbreviates: pH 7.4, Pe×10^-6cm/s Exp. value, PAMPA-BBB, three independent experiments.
The mark [9] stands for this setting: 30 mg/kg intragastric, 8, 22 and 36 h.

T5 sequence (P81908 whole entry): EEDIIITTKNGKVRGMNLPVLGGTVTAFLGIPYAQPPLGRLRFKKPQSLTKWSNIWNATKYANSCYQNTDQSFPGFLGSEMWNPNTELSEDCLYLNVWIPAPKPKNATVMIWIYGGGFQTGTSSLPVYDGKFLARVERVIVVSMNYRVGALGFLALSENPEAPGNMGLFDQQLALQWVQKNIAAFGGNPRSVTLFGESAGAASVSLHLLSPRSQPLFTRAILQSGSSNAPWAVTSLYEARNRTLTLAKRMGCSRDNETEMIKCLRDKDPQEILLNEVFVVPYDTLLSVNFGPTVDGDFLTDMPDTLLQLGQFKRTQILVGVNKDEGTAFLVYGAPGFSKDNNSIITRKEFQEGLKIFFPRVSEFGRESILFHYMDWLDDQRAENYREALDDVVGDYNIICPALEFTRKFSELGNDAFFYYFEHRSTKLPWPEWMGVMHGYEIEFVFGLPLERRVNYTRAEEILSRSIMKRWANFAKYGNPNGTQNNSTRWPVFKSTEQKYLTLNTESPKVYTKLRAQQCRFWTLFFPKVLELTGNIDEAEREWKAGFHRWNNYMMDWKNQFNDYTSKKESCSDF
T2 sequence (P81908 whole entry): as above
T3 sequence (P22303 32-614): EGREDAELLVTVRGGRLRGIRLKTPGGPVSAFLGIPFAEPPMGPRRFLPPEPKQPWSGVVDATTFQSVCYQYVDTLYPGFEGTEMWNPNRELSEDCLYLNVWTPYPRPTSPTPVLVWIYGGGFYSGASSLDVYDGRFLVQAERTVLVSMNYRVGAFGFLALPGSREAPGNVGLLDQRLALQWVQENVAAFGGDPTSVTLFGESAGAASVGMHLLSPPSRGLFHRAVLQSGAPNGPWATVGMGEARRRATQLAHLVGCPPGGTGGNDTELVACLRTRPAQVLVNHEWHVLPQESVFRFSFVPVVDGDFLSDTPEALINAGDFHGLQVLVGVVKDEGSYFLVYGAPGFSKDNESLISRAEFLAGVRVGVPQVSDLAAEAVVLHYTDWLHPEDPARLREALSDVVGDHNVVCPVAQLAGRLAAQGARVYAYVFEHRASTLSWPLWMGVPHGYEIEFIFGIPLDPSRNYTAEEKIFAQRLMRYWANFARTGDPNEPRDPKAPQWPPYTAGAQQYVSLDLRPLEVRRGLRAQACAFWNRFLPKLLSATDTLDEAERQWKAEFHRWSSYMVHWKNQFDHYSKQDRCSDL
T1 sequence (O42275 24-633): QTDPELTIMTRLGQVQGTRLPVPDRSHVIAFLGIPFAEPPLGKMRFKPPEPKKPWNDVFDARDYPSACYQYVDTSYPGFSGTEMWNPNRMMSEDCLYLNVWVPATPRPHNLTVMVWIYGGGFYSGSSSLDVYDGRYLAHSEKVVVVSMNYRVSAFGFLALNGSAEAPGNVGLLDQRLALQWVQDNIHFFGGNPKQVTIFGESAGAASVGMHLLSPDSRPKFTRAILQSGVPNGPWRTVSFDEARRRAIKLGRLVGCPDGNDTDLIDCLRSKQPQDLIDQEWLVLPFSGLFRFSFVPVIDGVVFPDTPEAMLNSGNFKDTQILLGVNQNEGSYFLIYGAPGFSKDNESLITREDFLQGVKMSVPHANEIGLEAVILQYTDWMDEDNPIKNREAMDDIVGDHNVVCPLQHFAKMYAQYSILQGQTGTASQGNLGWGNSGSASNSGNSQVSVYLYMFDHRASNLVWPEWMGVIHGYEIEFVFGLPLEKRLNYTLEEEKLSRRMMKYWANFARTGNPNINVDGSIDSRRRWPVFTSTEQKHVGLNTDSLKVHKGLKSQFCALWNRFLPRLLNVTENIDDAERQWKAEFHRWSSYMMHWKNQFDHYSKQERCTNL
T4 sequence (P06276 29-602): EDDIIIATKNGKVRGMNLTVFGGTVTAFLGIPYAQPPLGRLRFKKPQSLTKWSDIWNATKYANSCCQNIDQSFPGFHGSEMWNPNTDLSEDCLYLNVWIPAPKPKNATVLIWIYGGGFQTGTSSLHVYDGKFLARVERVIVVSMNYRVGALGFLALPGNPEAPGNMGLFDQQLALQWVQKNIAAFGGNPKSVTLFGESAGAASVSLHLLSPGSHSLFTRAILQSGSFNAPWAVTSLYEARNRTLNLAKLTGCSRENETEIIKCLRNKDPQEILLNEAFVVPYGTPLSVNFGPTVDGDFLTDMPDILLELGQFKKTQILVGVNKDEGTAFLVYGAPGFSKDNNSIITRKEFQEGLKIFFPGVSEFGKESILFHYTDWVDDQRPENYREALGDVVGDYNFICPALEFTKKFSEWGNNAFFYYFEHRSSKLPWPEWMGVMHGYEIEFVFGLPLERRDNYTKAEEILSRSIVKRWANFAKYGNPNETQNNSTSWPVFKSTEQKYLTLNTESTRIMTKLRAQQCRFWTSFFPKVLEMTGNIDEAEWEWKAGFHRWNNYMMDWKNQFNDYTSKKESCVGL
Procedure for AChE from electric eel: (§4) According to the Ellman’s method, assays were performed on AChE from electric eel (C3389-500UN; Sigma) and BuChE from equine serum (C4290-1KU; Sigma). The experiment was performed in 48-well plates in a final volume of 500 µL. Each well contained 0.036 U/mL of eeAChE or eqBuChE, and 0.1 M pH 8 PBS. They were pre-incubated for 20 min at different compound concentrations at 37 °C. […] The DTNB produces the yellow anion 5-thio-2-nitrobenzoic acid along with the enzymatic degradation of ACh or BuCh. Changes in absorbance were measured at 410 nm after 20 min in a PerkinElmer VICTOR Nivo reader. The IC50 values were calculated graphically from inhibition curves (log inhibitor concentration vs percent of inhibition). A control experiment was performed under the same conditions without inhibitor and the blank contained buffer, DMSO, DTNB, and substrate.
Procedure for BuChE from equine serum: as §4
Procedure for PC12 cells: Then, 100 µM H2O2 was added as a cytotoxic stimulus, and the culture was continued for 24 h in fresh medium containing this drug. Cell survival was measured by MTT assay after 24 h. The cells were incubated with 20 µL of 5 mg/mL MTT reagent for 4 h. After 4 h, the cell culture medium was removed, and 150 µL of DMSO was added to dissolve formazan. […] Results were adjusted for OD measured in blank.
Procedure for in vitro: as §2, §3
Procedure for male ICR mice: The combination was administered intragastrically at a dose of 30 mg/kg body weight and the same amount of vehicle (po). Heparinised serum was collected from the retrobulbar plexus at 8, 22, and 36 h after administration for hepatotoxicity evaluation. The activities of alanine aminotransferase (ALT) and aspartate aminotransferase (AST), indicators of liver injury, were measured with corresponding kits (EF551 and EF550 for ALT, EH027 and EH548 for AST). […] After the last collection of post-globular blood, mice were sacrificed and livers were taken for immunohistochemical morphological observation. We isolated two 3-mm sections of each liver from the hilum to the edge of the left lateral lobe using an ultra-thin semi-automatic microtome (LeicaRM2245, Germany), immediately placed them in 10% buffered formaldehyde, fixed them for 2 days, and embedded them in paraffin blocks using a paraffin-embedding station (LeicaEG1150H, Germany). Subsequently, five µM sections were prepared from these paraffin sections, deparaffinized, stained with haematoxylin and eosin or using the periodic acid-Schiff glycogen staining method.

Take `Clc1cccc(Cl)c1N=C1NCCN1` [Clonidine, reference compound]: in data set [1], the “Pe×10^-6cm/s BibL. value” is reported as 5.3 ×10^-6cm/s. Moreover, the Papp in “in vitro” (pH 7.4, Pe×10^-6cm/s Exp. value) amounted to 7.85 ×10⁻⁶ cm/s.

Turning to `CN1C(C(=O)Nc2ccccn2)=C(O)c2ccccc2S1(=O)=O` [Piroxicam, reference compound], in data set [2], the BBB penetration result is “CNS+ (“CNS +” (high BBB permeation): Pe (× 10^‒6 cm/s) >4.0)”. Besides, the “Pe×10^-6cm/s BibL. value” in data set [1] was 9.3 ×10^-6cm/s. For the same compound, in the data set “in vitro” (setting [8]), the apparent permeability (Papp) was 9.87 ×10⁻⁶ cm/s.

Regarding `COc1cc(/C=C/C(O)=C/C(=O)/C=C/c2ccc(OCc3ccccc3)cc2)ccc1O` [curcumin derivative], the IC50 with BACE-1 was 970 nM; in the data set on GSK-3β, 900 nM.

As to `O=C1c2cc(NS(=O)(=O)c3ccccc3OC(F)(F)F)ccc2NC2C3Nc4ccccc4C3CCN12` (stereo not shown) [Rutaecarpine-6n], the IC50 in the data set on BuChE is 3600 nM.

Compound `O=S(=O)(F)C(Br)=CC=Cc1ccc(Cl)nc1` [Compound A18] returned an IC50 against AChE from electric eel of 79 ± 2 nM. For the same compound, the inhibition at 20 µM at BuChE from equine serum (read-out: BuChE % inhibition at 20 µM, 20 µM) came out at 42.8 ± 3.6%; in data set [3], 14.3 ± 0.9%.

For `COc1cc2c(cc1OC)C(=O)C(CC1CCN(Cc3ccccc3)CC1)C2` (stereo not shown) [Donepezil, donepezil, reference compound], in [4] (15 mg/kg po Day 3 to Day 14), the “effect on Aβ1-42-induced cognitive dysfunction (MWM)” value is reported as “significantly improved”.

For the compound `COc1ccccc1C=CC=C(Br)S(=O)(=O)F` [Compound A10], the cell survival rate in data set [5] (50 µM) is 87.1%; in [5] (10 and 25 µM), “did not decrease”; in data set [6] (50 µM), 85.6%; in [6] (10 and 25 µM), “did not decrease”; in the data set with PC12 cells (first (lower) of the A10 concentrations), 63.3%; in the data set on PC12 cells (second (higher) of the A10 concentrations), 71.8%. Further, the inhibition at 20 µM on AChE from electric eel (read-out: AChE % inhibition at 20 µM, AChE from electric eel, 20 µM, na = no inhibitory activity at 20 µM) came out at 40.8 ± 3.3%; in [3], 49.7 ± 2.7%. Further, the BBB penetration entry in data set [2] is given as “CNS+ (“CNS +” (high BBB permeation): Pe (× 10^‒6 cm/s) >4.0)”. For the same compound, the IC50 was 3620 ± 320 nM in data set [7] and 21 nM against BuChE from equine serum (mean ± SEM). For the same compound, in the data set on Aβ1-42, the “decrease of brain Aβ1-42 peptides” value came out at 20.6%. Besides, the “general condition, appearance and activity” value with ICR mice (1.0 g/kg intragastric) is “no significant change in appearance and activity”. The “difference of body weight changes vs vehicle group” value in the data set with ICR mice (ICR mice, 1.0 g/kg intragastric, 14 days) is listed as “not significant”. The tolerability in vivo result with ICR mice (ICR mice, single intragastric dose 1.0 g/kg, 14 days) is “well tolerated”. For the same compound, the “body weight gain during treatment” value in data set [4] (10 mg/kg po Day 3 to Day 14) was “did not affect”. Besides, the “effect on Aβ1-42-induced cognitive dysfunction (MWM)” value in data set [4] (10 mg/kg po Day 3 to Day 14, 10 mg/kg) is on record as “significantly improved; also recorded: improved the cognitive impairment”. Moreover, the “type of BuChE inhibition” value at eqBuChE (Lineweaver–Burk plot, eqBuChE) is recorded as “mixed competitive; also recorded: mixed inhibition”. Also, on eqBuChE (enzyme activity vs enzyme concentration, 0–0.08 µM inhibitor), the “reversibility of BuChE inhibition” value is listed as “reversible”. Also, the Ki at eqBuChE (eqBuChE, Lineweaver–Burk secondary plot, read-out: dissociation constant Ki) was determined as 29 nM. In addition, the Papp in the data set “in vitro” (pH 7.4, Pe, PAMPA-BBB) came out at 13.7 ×10⁻⁶ cm/s; in “in vitro” (setting [8]) it was 13.4 ×10⁻⁶ cm/s. Besides, the “serum ALT vs vehicle group” value with male ICR mice (setting [9]) is recorded as “no significant difference”. For the same compound, the “serum AST vs vehicle group” value in the data set on male ICR mice (setting [9]) is given as “no significant difference”. The liver histomorphology result with male ICR mice (30 mg/kg, 36 h after administration) is on record as “didn’t show central necrosis or significant steatosis”.
